From patent US5573772A, “Methods for protecting tissues and organs from ischemic damage” (priority 1994, dated 1996)

Test system: rabbit heart
Assay: Infarct size in isolated rabbit hearts, A3-receptor mediation of preconditioning, Example 3
Protocol: New Zealand white rabbits of either sex, between 1.4-2.4 kg, were anesthetized with intravenous sodium pentobarbital (30 mg/kg). The neck was opened and a tracheotomy was performed. The rabbits were ventilated with 100% oxygen via a positive pressure respirator (MD industries, Mobile, Ala.). Ventilation rate was 30-35 breaths per minute, and tidal volume was approximately 15 ml. A left thoracotomy was performed in the fourth intercostal space and pericardium was opened to expose the heart. A 2-0 silk suture with an RB taper needle was passed around a branch of the left coronary artery, and the end of the silk were threaded through a small vinyl tube to form a snare. The heads were quickly excised and mounted on a Langendorff apparatus and perfused at constant pressure with Krebs buffer containing (in mM) 118.5 NaCl, 4.7 KCl, 1.2 MgSO4, 1.2 K2 PO4, 24.3 NaHCO3, 2.5 CaCl2 and 10 glucose. […] The temperature of the perfusate was maintained at 37° C. The perfusion pressure was kept at 75 mm Hg. Pacing electrodes were placed on the right atrium and all hearts were paced at 200 beats/minute with pulses of 5 volts and 4 msec duration to keep the heart rate constant. A fluid-filled latex balloon connected to a transducer via PE240 tubing was inserted into the left ventricle. Balloon volume was adjusted to set the left ventricular diastolic pressure at 10 mm Hg at the beginning of the experiment. Total coronary artery flow was measured by timed collection of buffer from the chamber into a graduated cylinder. Regional ischemia was effected by pulling the snare tight and clamping the tube with a hemostat. Global ischemia was performed by clamping the inflow tubing of the Langendorff apparatus. Reperfusion was achieved by releasing the restriction. All hearts were allowed to equilibrate for 20 minutes before the experiments were started. Heart rate (HR), coronary flow (CF) and left ventricular developed pressure (LVDP) were recorded at the point just before and at the end of each treatment with the pacing momentarily turned off. […] The hearts were removed from the Langendorff apparatus, weighed and then frozen. The hearts were cut into 2 mm transverse slices. The slices were thawed and incubated in 1% triphenyl tetrazolium chloride (TTC) in pH 7.4 buffer for 20 minutes at 37° C. TTC reacts with NADH and dehydrogenase enzymes and stains all tissue still having them to a deep red color. […] After staining, the area of infarcted tissue (TTC negative tissue) and the risk zone (area lacking fluorescence under ultraviolet light) in each slice were traced. The area of infarct and risk zone were determined by planimetry of the tracing. The volume of infarcted myocardium and myocardium at risk was then calculated by multiplying the planimetered areas by the slice thickness. The methods utilized in this example are identical to those described in Example 1. All hearts received 30 minutes of regional ischemia as described in Example 1. The control group (n=8) hearts received only 30 minutes of ischemia. Preconditioned (PC) hearts (n=10) received 5 minutes of global ischemia and 10 minutes of reperfusion prior to the regional ischemia. Adenosine (ADO) treated hearts (n=6) received 10 μM adenosine for 5 minutes prior to regional ischemia. APNEA treated hearts (n=6) received 65 μM APNEA for 5 minutes prior to regional ischemia. In groups receiving the nonselective adenosine blocker, 8-SPT, the blocker was included in the perfusate for 15 minutes at 100 μM starting 5 minutes before the exposure of ADO (ADO-SPT group, n=6), or APNEA (APNEA-SPT group, n=6 ) or 5 minutes before and after 5 minutes of preconditioning ischemia (PC-SPT group, n=5). […] For the PC-BW group (n=5), the A3-receptor antagonist, BW A1433, [Linden J, et al., Molecular Pharmacology 44:524-532 (1993)], was administered at a dose of 200 nM in the perfusate for 5 minutes before and 5 minutes after PC ischemia.

Question: Which “Infarct size (of the risk area)” value (ADO 10 μM, 5 minutes, control 32.2±1.5%, PC 8.8±2.3%) does the source give for `Nc1ncnc2c1ncn2[C@@H]1O[C@H](CO)[C@@H](O)[C@H]1O` [ADO, Adenosine] here?
Answer: The value was 11.4±2.3%.

Question: Which “Infarct size (of the risk area)” value (APNEA 65 μM (so in the source), 5 minutes, control 32.2±1.5%) does the source give for `Nc1ccc(CCNc2ncnc3c2ncn3[C@@H]2O[C@H](CO)[C@@H](O)[C@H]2O)cc1` [APNEA, N^6-(2-(4-aminophenyl)ethyl) adenosine] here?
Answer: The value was 12.6±2.2%.

Question: How did the “Infarct size (of the risk area)” value (DPCPX 200 nM + ADO) turn out when `CCCn1c(=O)c2[nH]c(C3CCCC3)nc2n(CCC)c1=O` [DPCPX, 8-cyclopentyl-1,3-dipropylxanthine] was run?
Answer: The value was 14.4±2.8%.

Question: And the “Infarct size (of the risk area)” value (DPCPX 200 nM + APNEA)?
Answer: The value was 8.7±1.7%.

Question: And the “Infarct size (of the risk area)” value (DPCPX 200 nM + PC)?
Answer: The value was 15.6±7.8%.

Question: Which results are given for `Cn1c(=O)c2[nH]c(-c3ccc(S(=O)(=O)O)cc3)nc2n(C)c1=O` [SPT, 8-(p-Sulfophenyl)-theophylline]?
Answer: Infarct size (of the risk area) (8-SPT 100 μM + ADO): 29.8±3.7%; Infarct size (of the risk area) (8-SPT 100 μM + APNEA): 30.3±3.3%; Infarct size (of the risk area) (8-SPT 100 μM + PC): 33.8±2.7%
